Measurements: DBAASP
≈ marks a conversion by molar mass, not a printed value.

Tests used:
Assay in all cases: ≥ marks a high value that may be exact or a test limit, other limits are often not marked, values filed in µg/mL are converted to µM
[1] = test system: Staphylococcus aureus ATCC 2592
Bacillus subtilis = test system: Bacillus subtilis
[2] = test system: Candida albicans 08032815
[3] = test system: Candida albicans 08022821
[4] = test system: Candida albicans ATCC 2002
[5] = test system: Candida albicans 08022710
[6] = test system: Escherichia coli ATCC 25922
[7] = test system: Candida albicans 08030809
Candida albicans SC5314 = test system: Candida albicans SC5314
[8] = test system: Xanthomonas oryzae pv. oryzae
[9] = test system: Xanthomonas campestris pv. campestris
[10] = test system: Cryptococcus neoformans var. grubii H99
[11] = test system: Pseudomonas aeruginosa ATCC 27853
[12] = test system: Escherichia coli DH5alpha
Staphylococcus aureus 38 = test system: Staphylococcus aureus 38
[13] = test system: Pseudomonas aeruginosa ATCC 19660
[14] = test system: Pseudomonas aeruginosa 37
[15] = test system: Pseudomonas aeruginosa 6294
Staphylococcus aureus 31 = test system: Staphylococcus aureus 31
[16] = test system: Staphylococcus aureus ATCC 6538
[17] = test system: Pseudomonas aeruginosa 6206
[18] = test system: Proteus vulgaris KCTC 2433
[19] = test system: Listeria monocytogenes KCTC 3710
[20] = test system: Candida albicans KCTC 7270
[21] = test system: Aspergillus awamori KCTC 6915
[22] = test system: Aspergillus flavus KCTC 6905
[23] = test system: Bacillus subtilis KCTC 1998
[24] = test system: Pseudomonas aeruginosa ATCC 15692
[25] = test system: Staphylococcus epidermidis ATCC 12228
[26] = test system: Trichosporon beigelii KCTC 7707
[27] = test system: Aspergillus fumigatus KCTC 6145
[28] = test system: Staphylococcus aureus ATCC 25923
[29] = test system: Aspergillus parasiticus KCTC 6598
[30] = test system: Salmonella typhimurium KCTC 1926
[31] = test system: Acinetobacter johnsonii NCDC 0072
[32] = test system: Salmonella enterica subsp. enterica serovar Typhimurium ATCC 14028
[33] = test system: Staphylococcus aureus NCDC 0111
[34] = test system: Escherichia coli MTCC 0723
[35] = test system: Listeria monocytogenes ATCC 19111
[36] = test system: Pseudomonas aeruginosa NCDC 0105
[37] = test system: Staphylococcus aureus ATCC 29213
[38] = test system: Bacillus cereus NCDC 0240
Escherichia coli BW25113 = test system: Escherichia coli BW25113
[39] = test system: Escherichia coli BW25113 ΔwaaG
[40] = test system: Escherichia coli BW25113 ΔsbmA

With `CC(C)[C@H](N)C(=O)N[C@@H](CCCCN)C(=O)N[C@@H](CCCN=C(N)N)C(=O)N[C@@H](Cc1c[nH]c2ccccc12)C(=O)N[C@@H](CCCCN)C(=O)N[C@@H](CCCCN)C(=O)N[C@@H](Cc1c[nH]c2ccccc12)C(=O)N[C@@H](CCCN=C(N)N)C(=O)N[C@@H](Cc1c[nH]c2ccccc12)C(=O)N[C@@H](CCCCN)C(=O)N[C@@H](Cc1c[nH]c2ccccc12)C(=O)N[C@@H](CCCCN)C(=O)N[C@@H](CCCCN)C(=O)N[C@@H](Cc1c[nH]c2ccccc12)C(=O)N[C@H](C(N)=O)C(C)C` [VKRWKKWRWKWKKWV] the MIC [1] was 0.525 µM (≈ 1.17 µg/mL), the MIC (Bacillus subtilis) was 0.525 µM (≈ 1.17 µg/mL) and the MIC [2] was 1.25 µM (≈ 2.79 µg/mL). For the same molecule, the MIC [3] was 1.4 µM (≈ 3.13 µg/mL), the MIC [4] was 0.265 µM (≈ 0.59 µg/mL) and the MIC [5] was 2.1 µM (≈ 4.69 µg/mL). The MIC [6] was 4.21 µM (≈ 9.38 µg/mL) and the MIC [7] was 0.628 µM (≈ 1.4 µg/mL).

`CC(C)C[C@H](NC(=O)CNC(=O)[C@H](CS)NC(=O)CNC(=O)[C@H](CC(N)=O)NC(=O)CNC(=O)[C@H](Cc1c[nH]c2ccccc12)NC(=O)CNC(=O)[C@H](CCCN=C(N)N)NC(=O)[C@H](CC(=O)O)NC(=O)[C@@H](N)C(C)C)C(=O)N[C@@H](Cc1ccccc1)C(=O)NCC(=O)N[C@@H](CCCCN)C(=O)NCC(=O)NCC(=O)O` [VDRGWGNGCGLFGKGG] was tested, and the MIC (Candida albicans SC5314) was no less than 100 µM, the MIC [8] was no less than 100 µM and the MIC [9] was no less than 100 µM. It also gave an MIC (Bacillus subtilis) of no less than 100 µM, an MIC [10] of no less than 100 µM and an MIC [11] greater than 100 µM. For the same molecule, the MIC [12] was no less than 100 µM.

Molecule `CC[C@H](C)[C@H](NC(=O)[C@H](Cc1c[nH]c2ccccc12)NC(=O)[C@H](CO)NC(=O)[C@@H](NC(=O)[C@H](CC(C)C)NC(=O)[C@@H](N)[C@@H](C)O)[C@@H](C)CC)C(=O)N[C@@H](CCCCN)C(=O)N[C@@H](CC(N)=O)C(=O)N[C@@H](CCCCN)C(=O)N[C@@H](CCCN=C(N)N)C(=O)N[C@@H](CCCCN)C(=O)N[C@@H](CCC(N)=O)C(=O)N[C@@H](CCCN=C(N)N)C(=O)N1CCC[C@H]1C(=O)N[C@@H](CCCN=C(N)N)C(=O)N[C@H](C(=O)N[C@@H](CO)C(=O)N[C@@H](CCCN=C(N)N)C(=O)N[C@@H](CCCN=C(N)N)C(=O)N[C@@H](CCCN=C(N)N)C(=O)N[C@@H](CCCN=C(N)N)C(=O)N[C@@H](CCCN=C(N)N)C(=O)N[C@@H](CCCN=C(N)N)C(=O)NCC(=O)NCC(=O)N[C@@H](CCCN=C(N)N)C(=O)N[C@@H](CCCN=C(N)N)C(=O)N[C@@H](CCCN=C(N)N)C(=O)N[C@@H](CCCN=C(N)N)C(=O)O)C(C)C` [TLISWIKNKRKQRPRVSRRRRRRGGRRRR] has an MIC (Staphylococcus aureus 38) of no less than 33 µM, an MIC [13] of no less than 132 µM and an MIC [14] of no less than 33 µM. The MIC [15] was no less than 66 µM, the MIC (Staphylococcus aureus 31) was no less than 33 µM and the MIC [16] was 16.5 µM (≈ 62.5 µg/mL). It also gave an MIC [17] of no less than 66 µM.

`CC[C@H](C)[C@H](NC(=O)[C@H](CCCCN)NC(=O)[C@H](CCCCN)NC(=O)[C@H](C)NC(=O)[C@H](CC(C)C)NC(=O)[C@H](CCCCN)NC(=O)[C@H](CCCCN)NC(=O)[C@H](CC(C)C)NC(=O)[C@H](CCCN=C(N)N)NC(=O)[C@H](CCCCN)NC(=O)[C@@H](N)Cc1ccccc1)C(=O)N[C@@H](Cc1c[nH]c2ccccc12)C(=O)N[C@@H](CC(N)=O)C(=O)N[C@@H](Cc1c[nH]c2ccccc12)C(=O)N[C@@H](CCCCN)C(N)=O` [FKRLKKLAKKIWNWK] showed an MIC [18] of 4 µM (≈ 7.95 µg/mL), an MIC [19] of 2 µM (≈ 3.97 µg/mL) and an MIC [20] of 8 µM (≈ 15.9 µg/mL). It also gave an MIC [21] of 16 µM (≈ 31.8 µg/mL), an MIC [22] of 16 µM (≈ 31.8 µg/mL) and an MIC [23] of 4 µM (≈ 7.95 µg/mL). For the same molecule, the MIC [24] was 2 µM (≈ 3.97 µg/mL), the MIC [25] was 2.83 µM (≈ 5.62 µg/mL) and the MIC [26] was 16 µM (≈ 31.8 µg/mL). The MIC [6] was 4 µM (≈ 7.95 µg/mL), the MIC [27] was 8 µM (≈ 15.9 µg/mL) and the MIC [28] was 4 µM (≈ 7.95 µg/mL). The MIC [29] was 8 µM (≈ 15.9 µg/mL) and the MIC [30] was 2 µM (≈ 3.97 µg/mL).

For `CC[C@H](C)[C@H](NC(=O)[C@H](Cc1c[nH]c2ccccc12)NC(=O)[C@@H]1CCCN1C(=O)[C@H](CC(C)C)NC(=O)CN)C(=O)N[C@@H](CC(C)C)C(=O)N[C@@H](CC(C)C)C(=O)N[C@@H](CCCN=C(N)N)C(=O)N[C@@H](Cc1c[nH]c2ccccc12)C(=O)N[C@@H](CC(C)C)C(=O)N[C@@H](Cc1ccccc1)C(=O)N[C@@H](Cc1ccccc1)C(=O)N[C@@H](CCCN=C(N)N)C(=O)NCC(=O)O` [GLPWILLRWLFFRG], the MIC [31] was no less than 200 µM, the MIC [32] was 100 µM (≈ 177 µg/mL) and the MIC [33] was 25 µM (≈ 44.4 µg/mL). For the same molecule, the MIC [34] was no less than 200 µM, the MIC [35] was 6 µM (≈ 10.6 µg/mL) and the MIC [36] was no less than 200 µM. For the same molecule, the MIC [11] was greater than 200 µM, the MIC [37] was 3 µM (≈ 5.32 µg/mL) and the MIC [38] was no less than 100 µM.

Work on `CC[C@H](C)[C@H](N)C(=O)N[C@@H](CCCN=C(N)N)C(=O)N1CCC[C@H]1C(=O)N[C@@H](CCCN=C(N)N)C(=O)N1CCC[C@H]1C(=O)N1CCC[C@H]1C(=O)N[C@@H](CCCN=C(N)N)C(=O)N[C@@H](CC(C)C)C(=O)N1CCC[C@H]1C(=O)N[C@@H](CCCN=C(N)N)C(=O)N1CCC[C@H]1C(=O)N[C@@H](CCCN=C(N)N)C(=O)N1CCC[C@H]1C(=O)N[C@@H](CCCN=C(N)N)C(=O)N1CCC[C@H]1C(=O)N[C@@H](CC(C)C)C(=O)N1CCC[C@H]1C(=O)N[C@@H](Cc1ccc(O)cc1)C(=O)N1CCC[C@H]1C(=O)N[C@@H](CCCN=C(N)N)C(=O)N1CCC[C@H]1C(=O)O` [IRPRPPRLPRPRPRPLPYPRP] yielded an MIC (Escherichia coli BW25113) of 8 µM (≈ 20.7 µg/mL), an MIC [6] of 8 µM (≈ 20.7 µg/mL) and an MIC [39] of 4 µM (≈ 10.3 µg/mL). It also gave an MIC [40] of no less than 32 µM.
